Source: patent US20120022054A1, “NOVEL SUBSTITUTED ARYL DERIVATIVES, THEIR PROCESS OF PREPARATION AND THEIR THERAPEUTICAL USES AS ANTI-HIV AGENTS” (priority 2008, published 2012)
pEC50: −log10 of the molar value. Where two headings read alike, the source gives them in different places.

Columns and labels:
[1] = tested on: Env-deleted NL4-3 vector virus pseudotyped with the VSV g envelope; assay: microbe, parasite or virus in culture; type: cell-based, HIV-1; details: Vesicular stomatitis virus, NL43, SUP-T1, 48 h, read-out: EC50 for antiviral activity (50% inhibition of luciferase activity)
NL4-3 strain of HIV-1 = assay: Multiple cycle infection assay of CAp24 antigen production; type: cell-based; details: Human immunodeficiency virus 1, NL43, SUP-T1, 96 h, read-out: EC50 for antiviral activity (50% inhibition of CA p24 production)
[2] = multiple cycle infection with NL4-3 virus, SupT1, MT4 or PBMC, MOI 0.01, day 4 and day −6 post-infection, threshold below 5 μM

Compound	pEC50 [1]	pEC50 (NL4-3 strain of HIV-1; [2])	pEC50 (NL4-3 strain of HIV-1)
COc1ccc(SCCCC(=O)N(C)Cc2cc(Cl)ccc2OC)cc1 [Example 115, N-(5-chloro-2-methoxybenzyl)-4-[(4-methoxyphenyl)thio]-N-methylbutanamide]	> 5.30	> 5.30	–
COCc1ccccc1CN(C)C(=O)CCCSc1ccc(O)cc1 [Example 65, 4-[(4-Hydroxyphenyl)thio]-N-[2-(methoxymethyl)benzyl]-N-methylbutanamide]	> 5.30	> 5.30	–
COc1ccc(SCCCC(=O)N(C)Cc2cc(C)ccc2OC)cc1 [Example 119, 4-[(4-methoxyphenyl)thio]-N-[2-methoxy-5-methylbenzyl]-N-methylbutanamide]	> 5.30	> 5.30	–
CN(Cc1ccccc1C(F)(F)F)C(=O)CCCSc1ccc(O)cc1 [Example 15, 4-[(4-Hydroxyphenyl)thio]-N-methyl-N-[2-(trifluoromethyl)benzyl]butanamide]	> 5.30	> 5.30	–
CN1CCN(c2ccccc2CN(C)C(=O)CCCSc2ccc(O)cc2)CC1 [Example 13, 4-[(4-Hydroxyphenyl)thio]-N-methyl-N-[2-(4-methylpiperazin-1-yl)benzyl]-butanamide]	> 5.30	> 5.30	–
COc1ccc(SCCCC(=O)N(C)Cc2cc(C)ccc2N2CCOCC2)cc1 [Example 124, 4-[(4-methoxyphenyl)thio]-N-[5-methyl-2-(morpholin-4-yl)benzyl]-N-methylbutanamide]	> 5.30	> 5.30	–
CN(Cc1ccccc1OC(F)(F)F)C(=O)CCCSc1ccc(O)cc1 [Example 27, 4-[(4-hydroxyphenyl)thio]-N-methyl-N-[2-(trifluoromethoxy)benzyl]butanamide]	> 5.30	> 5.30	–
CC(C)Oc1ccccc1CN(C)C(=O)CCCSc1ccc(F)cc1 [Example 50, 4-[(4-Fluorophenyl)thio]-N-(2-isopropoxybenzyl)-N-methylbutanamide]	> 5.30	> 5.30	–
COc1ccccc1CN(C)C(=O)CCCC(=O)c1ccc(F)cc1 [Example 56, 5-(4-Fluorophenyl)-N-(2-methoxybenzyl)-N-methyl-5-oxopentanamide]	> 5.30	> 5.30	–
COc1ccc(F)cc1CN(C)C(=O)CCCSc1ccc(CO)cc1 [Example 148, N-(5-fluoro-2-methoxybenzyl)-4-{[4-(hydroxymethyl)phenyl]thio}-N-methylbutanamide]	> 5.30	> 5.30	–
COc1ccccc1CN(C)C(=O)CCCCSc1ccc(O)cc1 [Example 12, 5-[(4-Hydroxyphenyl)thio]-N-(2-methoxybenzyl)-N-methylpentanamide]	> 5.30	> 5.30	–
COc1ccc(F)cc1CN(C)C(=O)CCCSc1ccc(C)cc1 [Example 111, N-(5-fluoro-2-methoxybenzyl)-N-methyl-4-[(4-methylphenyl)thio]butanamide]	> 5.30	> 5.30	–
C=CCOc1ccc(Cl)cc1CN(C)C(=O)CCCSc1ccc(F)cc1 [Example 101, N-[2-(allyloxy)-5-chlorobenzyl]-4-[(4-fluorophenyl)thio]-N-methylbutanamide]	> 5.30	> 5.30	–
COc1ccc(SCCCC(=O)N(C)Cc2cc(F)ccc2OC)cc1 [Example 87, N-(5-Fluoro-2-methoxybenzyl)-4-[(4-methoxyphenyl)thio]-N-methylbutanamide]	> 5.30	> 5.30	–
CN(Cc1ccccc1C1=CCNCC1)C(=O)CCCSc1ccc(O)cc1 [Example 168, 4-[(4-Hydroxyphenyl)thio]-N-methyl-N-[2-(1,2,3,6-tetrahydropyridin-4-yl)benzyl]butanamide]	> 5.30	–	> 5.30
CN(Cc1cccc2c1OCC2)C(=O)CCCSc1ccc(O)cc1 [Example 22, N-(2,3-Dihydro-1-benzofuran-7-ylmethyl)-4-[(4-hydroxyphenyl)thio]-N-methylbutanamide]	> 5.30	> 5.30	–
COc1ccc(SCCCC(=O)N(C)Cc2ccccc2OC)cc1 [Example 42, N-(2-Methoxybenzyl)-4-[(4-methoxyphenyl)thio]-N-methylbutanamide]	> 5.30	> 5.30	–
COc1ccccc1CN(C)C(=S)CCCSc1ccc(O)cc1 [Example 164, 4-[(4-Hydroxyphenyl)thio]-N-(2-methoxybenzyl)-N-methylbutanethioamide]	> 5.30	> 5.30	–
CCOC(=O)c1cc(F)ccc1SCCCC(=O)N(C)c1cccc(F)c1 [Example 193, Ethyl 5-fluoro-2-({4-[(3-fluorophenyl)(methyl)amino]-4-oxobutyl}thio)benzoate]	> 5.30	> 5.30	–
COC(=O)c1ccc(SCCCC(=O)N(C)Cc2cc(F)ccc2OC)cc1 [Example 147, Methyl 4-({4-[(5-fluoro-2-methoxybenzyl)methylamino]-4-oxobutyl}thio)benzoate]	> 5.30	> 5.30	–
CN(Cc1ccccc1N1CCN(c2ccc(C(F)(F)F)cn2)CC1)C(=O)CCCNCc1ccc(F)cc1 [Example 80, 4-[(4-Fluorophenyl)methylamino]-N-methyl-N-(2-{4-[5-(trifluoromethyl)pyridin-2-yl]piperazin-1-yl}benzyl)butanamide]	> 5.30	> 5.30	–
CN(Cc1ccccc1N1CCOCC1)C(=O)CCCSc1ccc(O)cc1 [Example 11, 4-[(4-Hydroxyphenyl)thio]-N-methyl-N-(2-morpholin-4-ylbenzyl)butanamide]	> 5.30	> 5.30	–
COc1ccccc1CN(C)C(=O)CCCSc1ccc(F)c(Cl)c1 [Example 141, 4-[(3-Chloro-4-fluorophenyl)thio]-N-(2-methoxybenzyl)-N-methylbutanamide]	> 5.30	> 5.30	–
COc1cccc(CN(C)C(=O)CCCSc2ccc(O)cc2)c1OC [Example 29, N-(2,3-dimethoxybenzyl)-4-[(4-hydroxyphenyl)thio]-N-methylbutanamide]	> 5.30	> 5.30	–
